Where two headings read alike, the source gives them in different places. Values belong to the molecule of their own block, whether it stands above or below them.
Experiments:
Type in all cases: binding
[1] = target: T1, cysteine residue illustrated in Table 1A or Table 2A (Homo sapiens, UniProt Q7Z4G1); experiment: Competitive cysteine profiling of cell lysate with desthiobiotin iodoacetamide probe (96-well sample prep); conditions: UniProt Q7Z4G1; 100 uM
T1 construct: Cells were resuspended in cold PBS on ice and sonicated with a probe sonicator to achieve lysis; endogenous in cells
Description: (§1) In some embodiments, the solution sample (e.g., cell sample, cell lysate sample, or comprising isolated proteins) is incubated with a compound of Formula (I) for analysis of protein-probe interactions. In some instances, the solution sample (e.g., cell sample, cell lysate sample, or comprising isolated proteins) is further incubated in the presence of an additional compound probe prior to addition of the compound of Formula (I). […] In such instances, the solution sample is incubated with a probe and a ligand for competitive protein profiling analysis.
(§2) The following 96-well sample prep protocol was used for sample preparation.
(§3) Cells were resuspended in cold PBS on ice and sonicated with a probe sonicator to achieve lysis. 200 μL of lysate containing 5 mg/ml proteome was treated with 2 μL of 100× compound stock in a 2-mL deep-well plate. The treated lysate was subsequently incubate at 25° C. for 1 hr with shaking at 600 rpm. The treated lysate was further incubated with 2 μL of 10 mM desthiobiotin iodoacetamide probe at 25° C. for 1 hr with shaking at 600 rpm. Next, the lysate was further treat with 20 μL of solution of PBS containing 11 mM MgSO4 and 2.5% Turbonuclease stock and incubated at 25° C. for 20 minutes with shaking at 600 rpm. 1.7 mL ice-cold acetone was added to each well and incubated at −20° C. for 2 hr, followed by max speed (4200 rpm) spin for 45 min. Acetone was then decanted and the plates were blotted to remove acetone. The plates were then dried in open air for 20 minutes. After drying, the plates were then covered with foil seal and stored at −80° C. overnight.
(§4) The next day, samples were re-suspended in 90 μL of solution of 9M urea, 50 mM ammonium bicarbonate and 10 mM DTT by incubating at 65C for 20 min with shaking at 1500 rpm. Next, samples were cooled to 37° C. and then 10 μL of 500 mM iodoacetamide solution (92.48 mg/ml) was added. The samples were then incubated at 37° C. for 30 min with shaking at 600 rpm.
(§5) ZEBA desalting plates were equilibrated 4 times using 250 μL of 2M urea, 50 mM ammonium bicarbonate solution followed by centrifugation at 1500 rpm for 2 minutes. After equilibration was complete, samples were applied to ZEBA desalting plate and spin at 1500 rpm for 2 min on top of 1 mL 96-well deep-well collection plate to buffer exchange samples. 4 μL of solution containing 25 mM CaCl2 and 0.25 mg/mL trypsin was added to the plate and the plate was then incubated at 37° C. for 2 hrs with shaking at 600 rpm. 300 μL of solution containing 5% high-capacity streptavidin agarose slurry in 25 mM Tris-HCl pH 7.5, 150 mM NaCl, and 0.1% NP-40 then added. The plate was incubated at 25° C. for 2 hrs with shaking at 600 rpm. Samples were transferred to 25 μm filter plate and spin at 1000 rpm for 2 min. Samples were then washed 3 times with 0.75 mL of wash buffer (25 mM Tris-HCl pH 7.5, 150 mM NaCl, and 0.1% NP-40) followed by washing 3 times with 0.75 mL PBS, and then 4 times with 0.75 mL water. After the washing step, samples were eluted into polypropylene 96-well plate by addition of 250 µL of 50% MeCN/water, 0.1% formic acid and allowed to gravity drip for 10 min, followed by centrifugation at 1000 rpm for 2 min. Speedvac was used to dry the plates at about 45° C. for […]. Then the plates were covered with foil seal and stored at −20° C.
(§6) Samples were resuspended by addition of 20 μl of 12.5% ACN, 0.1% formic acid solution, covered with foil seal, and incubated at 42° C. for 10 minutes with shaking at 600 rpm. Then add 30 μL of 0.1% formic acid solution was added and the plate was covered and incubated at 42° C. for 10 minutes with shaking at 600 rpm. Seal plate was then sealed with a 96-well silicon mat for analysis.

[2] = target: T2, cysteine residue illustrated in Table 1A or Table 2A (Homo sapiens, UniProt A6NGE4); experiment: as above; conditions: UniProt A6NGE4; 500 uM
T2 construct: Cells were resuspended in cold PBS on ice and sonicated with a probe sonicator to achieve lysis; endogenous in cells
Description: as §1, §2, §3, §4, §5, §6

[3] = target: T3, cysteine residue illustrated in Table 1A or Table 2A (Homo sapiens, UniProt O95628); experiment: as above; conditions: UniProt O95628; 100 uM
T3 construct: endogenous in cells
T3 sequence (O95628 1-575): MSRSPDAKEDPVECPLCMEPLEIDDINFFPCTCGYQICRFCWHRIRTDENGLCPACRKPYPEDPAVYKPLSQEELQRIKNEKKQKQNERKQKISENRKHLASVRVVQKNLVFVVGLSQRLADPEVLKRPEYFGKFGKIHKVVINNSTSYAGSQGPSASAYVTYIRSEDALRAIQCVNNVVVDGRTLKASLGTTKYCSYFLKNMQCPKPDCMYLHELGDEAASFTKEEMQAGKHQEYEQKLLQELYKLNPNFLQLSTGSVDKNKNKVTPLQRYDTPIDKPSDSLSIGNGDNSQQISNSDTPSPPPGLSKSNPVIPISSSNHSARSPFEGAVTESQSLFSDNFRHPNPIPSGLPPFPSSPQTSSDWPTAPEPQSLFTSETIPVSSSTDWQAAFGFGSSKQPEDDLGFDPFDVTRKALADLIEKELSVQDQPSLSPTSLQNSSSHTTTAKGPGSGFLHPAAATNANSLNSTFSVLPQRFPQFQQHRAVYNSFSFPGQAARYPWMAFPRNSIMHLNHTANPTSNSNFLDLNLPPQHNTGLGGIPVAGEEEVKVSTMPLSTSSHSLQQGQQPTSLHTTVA
Description: as §1, §2, §3, §4, §5, §6

[4] = target: T4, cysteine residue illustrated in Table 1A or Table 2A (Homo sapiens, UniProt Q9GZQ3); experiment: as above; conditions: UniProt Q9GZQ3; 500 uM
T4 construct: Cells were resuspended in cold PBS on ice and sonicated with a probe sonicator to achieve lysis; endogenous in cells
Description: as §1, §2, §3, §4, §5, §6

P60006 = target: T5, P60006 (Homo sapiens, UniProt P60006); experiment: Competitive cysteine profiling, probe competition (Table 2B)
T5 construct: Cells were resuspended in cold PBS on ice and sonicated with a probe sonicator to achieve lysis; endogenous in cells
Description: as §2

Q96P09 = target: T6, Q96P09 (Homo sapiens, UniProt Q96P09); experiment: as above
T6 construct: 200 μL of lysate containing 5 mg/ml proteome was treated with 2 μL of 100× compound stock; endogenous in cells
T6 sequence (Q96P09 1-236): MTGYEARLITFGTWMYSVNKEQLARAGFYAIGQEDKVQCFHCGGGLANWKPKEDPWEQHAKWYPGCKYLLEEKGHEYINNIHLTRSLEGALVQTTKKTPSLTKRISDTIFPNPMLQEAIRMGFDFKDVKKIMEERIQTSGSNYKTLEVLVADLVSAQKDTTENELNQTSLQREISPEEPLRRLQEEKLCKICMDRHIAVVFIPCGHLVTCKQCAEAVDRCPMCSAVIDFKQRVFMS
Description: as §2

Structure (SMILES): COc1ccc2c(c1)CCCN2C(=O)CCl [KB02]
KB02_100 uM_percent_inhibition [1]: 22% | KB02_500 uM_percent_inhibition [2]: 55% | KB02_100 uM_percent_inhibition [3]: 6% | KB02_500 uM_percent_inhibition [4]: 11% | inhibition at 100 µM (P60006; 100 uM, read-out: KB02_100 uM_percent_inhibition): 44% | inhibition at 500 µM (P60006; 500 uM, read-out: KB02_500 uM_percent_inhibition): 93% | inhibition at 500 µM (Q96P09; read-out: KB02_500 uM_percent_inhibition): 38%

KB05_100 uM_percent_inhibition [1]: 33% | KB05_500 uM_percent_inhibition [2]: 63% | KB05_100 uM_percent_inhibition [3]: 94% | KB05_500 uM_percent_inhibition [4]: 56% | inhibition at 100 µM (P60006; 100 uM, read-out: KB05_100 uM_percent_inhibition): 24% | inhibition at 500 µM (P60006; 500 uM, read-out: KB05_500 uM_percent_inhibition): 74% | inhibition at 500 µM (Q96P09; read-out: KB05_500 uM_percent_inhibition): 45%
Structure (SMILES): C=CC(=O)N(c1ccccc1)c1ccc(Br)cc1 [KB05]

Structure (SMILES): O=C(CCl)Nc1cc(C(F)(F)F)cc(C(F)(F)F)c1 [KBO3]
KB03_100 uM_percent_inhibition [1]: 33% | KB03_500 uM_percent_inhibition [2]: 41% | KB03_100 uM_percent_inhibition [3]: 13% | KB03_500 uM_percent_inhibition [4]: 24% | KB03_100 uM_percent_inhibition (P60006; 100 uM): 49% | KB03_500 uM_percent_inhibition (P60006; 500 uM): 65% | KB03_500 uM_percent_inhibition (Q96P09; 500 uM): 21%
